Measured values as given in US12637471B2, “Heterocyclic compounds, compositions, methods of preparation and uses thereof” (Organon R&D Finland Ltd, priority 2021, dated 2026).

What was measured:
Assay type in all cases: biochemical
[1] = target: T1, 17β-Hydroxysteroid Dehydrogenase Type 2 Enzyme (17β-HSD2) (Homo sapiens, UniProt P37059); assay: Inhibition of the 17β-hydroxysteroid dehydrogenase type 2 enzyme, 3H-testosterone conversion; conditions: inhibitor at 10 μM
T1 construct: made in house; host or cells: Sf-9 insect cells (baculovirus)
T1 sequence (P37059 1-387): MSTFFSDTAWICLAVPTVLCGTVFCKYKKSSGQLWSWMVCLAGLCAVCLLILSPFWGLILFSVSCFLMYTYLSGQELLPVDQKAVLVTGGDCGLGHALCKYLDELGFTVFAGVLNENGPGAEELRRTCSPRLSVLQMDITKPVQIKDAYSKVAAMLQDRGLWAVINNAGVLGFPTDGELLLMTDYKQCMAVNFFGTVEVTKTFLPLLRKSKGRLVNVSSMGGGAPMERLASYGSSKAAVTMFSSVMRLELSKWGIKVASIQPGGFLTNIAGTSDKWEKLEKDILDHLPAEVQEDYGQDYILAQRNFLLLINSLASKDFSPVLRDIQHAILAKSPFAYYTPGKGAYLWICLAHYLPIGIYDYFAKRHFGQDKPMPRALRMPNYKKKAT
Summary of the method: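 Recombinant human 17β-HSD2 (Sf-9/baculovirus; 105 nM) incubated with 56.25 nM ³H-testosterone and 1 mM NAD in 20 mM KH2PO4 pH 8.5, 1 mM EDTA, 1% DMSO, 30 min at RT, inhibitor 10 μM. Reaction stopped with TCA; conversion to ³H-androstenedione by radio-UPLC gives percent inhibition.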

[2] = target: T2, Recombinant human AKR1C3 (17β-HSD5) protein (Homo sapiens, UniProt P42330); assay: Inhibition of AKR1C3 (17β-hydroxysteroid dehydrogenase type 5) enzyme, fluorescence assay; conditions: inhibitor at 500 nM
T2 construct: made in house; host or cells: E. coli
T2 sequence (P42330 1-323): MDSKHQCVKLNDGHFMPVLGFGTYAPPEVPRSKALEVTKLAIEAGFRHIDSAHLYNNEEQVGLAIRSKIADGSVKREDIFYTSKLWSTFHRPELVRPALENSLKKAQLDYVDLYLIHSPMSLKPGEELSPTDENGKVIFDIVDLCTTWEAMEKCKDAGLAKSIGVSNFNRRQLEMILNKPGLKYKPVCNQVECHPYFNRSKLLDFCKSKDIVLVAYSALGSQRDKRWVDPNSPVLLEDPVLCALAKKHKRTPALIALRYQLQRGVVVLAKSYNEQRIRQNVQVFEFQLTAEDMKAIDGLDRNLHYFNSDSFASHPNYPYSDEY
Summary of the method: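 E. coli-expressed human AKR1C3 (27 nM) in 20 mM KH2PO4, 1 mM EDTA, pH 7.4, with 1 μM pyranoquinolinone ketone substrate, 1 mM NADPH and inhibitor at 500 nM, 1% DMSO, 60–120 min at RT. Fluorescent alcohol product (ex 420/em 510 nm) quantified against standards; inhibition derived from conversion percentages.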

[3] = target: T3, Recombinant human aldo-keto reductase family 1 member C2 (AKR1C2) protein (Homo sapiens, UniProt P52895); assay: Inhibition of the aldo-keto reductase family 1 member C2, 3H-dihydrotestosterone conversion; conditions: inhibitor at 10 μM
T3 construct: made in house; host or cells: Sf-9 insect cells (baculovirus)
T3 sequence (P52895 1-323): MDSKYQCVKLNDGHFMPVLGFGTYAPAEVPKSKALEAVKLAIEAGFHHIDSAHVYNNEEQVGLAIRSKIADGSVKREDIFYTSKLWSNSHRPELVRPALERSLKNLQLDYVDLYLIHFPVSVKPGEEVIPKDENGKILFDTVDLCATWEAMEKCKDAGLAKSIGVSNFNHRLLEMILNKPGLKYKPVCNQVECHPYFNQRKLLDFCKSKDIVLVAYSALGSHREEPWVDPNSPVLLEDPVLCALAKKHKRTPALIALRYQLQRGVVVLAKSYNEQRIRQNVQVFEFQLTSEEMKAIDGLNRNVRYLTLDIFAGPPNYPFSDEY
Summary of the method: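 Sf-9-expressed enzyme (13.6 nM) incubated 45 min at 37 °C in 20 mM KH2PO4 pH 7.4 with 1 mM NADPH, 6.25 nM [3H]dihydrotestosterone and 10 μM compound (1% DMSO). After TCA stop, substrate and 5α-androstane-3α,17β-diol resolved by UPLC with radio-detection; inhibition from percent conversion.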

| SMILES | inhibition at 10 µM [1] [%] | inhibition at 0.5 µM [2] [%] | inhibition at 10 µM [3] [%] |
| --- | --- | --- | --- |
| N#CC(=C1CCN(C(=O)N2CCc3[nH]ncc3C2)CC1)c1cccc2cn[nH]c12 [Compound 71, 2-(1H-indazol-7-yl)-2-(1-(4,5,6,7-tetrahydro-1H-pyrazolo[4,3-c]pyridine-5-carbonyl)piperidin-4-ylidene)acetonitrile] | 29 | 99 | 12 |
| N#CC(=C1CCN(C(=O)N2CCC(C(F)(F)F)CC2)CC1)c1ccc(Cl)cc1 [Compound 90, 2-(4-chlorophenyl)-2-(1-(4-(trifluoromethyl)piperidine-1-carbonyl)piperidin-4-ylidene)acetonitrile] | 30 | 99 | 9 |
| N#CC(=C1CCN(C(=O)N2CCn3ncnc3C2)CC1)c1ccc(F)cc1 [Compound 26, 2-(4-fluorophenyl)-2-(1-(5,6,7,8-tetrahydro-[1,2,4]triazolo[1,5-a]pyrazine-7-carbonyl)piperidin-4-ylidene)acetonitrile] | 13 | 97 | 6 |
| COC[C@@H]1CCCN1C(=O)N1CCC(=C(C#N)c2ccc(Cl)cc2)CC1 [Compound 82, (S)-2-(4-chlorophenyl)-2-(1-(2-(methoxymethyl)pyrrolidine-1-carbonyl)piperidin-4-ylidene)acetonitrile] | 28 | 100 | 3 |
| N#CC(=C1CCN(C(=O)N2CCc3cc(F)ccc32)CC1)c1ccc(F)cc1 [Compound 109, 2-(1-(5-fluoroindoline-1-carbonyl)piperidin-4-ylidene)-2-(4-fluorophenyl)acetonitrile] | 26 | 96 | 12 |
| N#CC(=C1CCN(C(=O)N2CCc3[nH]ncc3C2)CC1)c1ccc(Cl)cn1 [Compound 67, 2-(5-chloropyridin-2-yl)-2-(1-(4,5,6,7-tetrahydro-1H-pyrazolo[4,3-c]pyridine-5-carbonyl)piperidin-4-ylidene)acetonitrile] | 9 | 98 | 6 |
| Cn1ncc2cccc(C(C#N)=C3CCN(C(=O)N4CCn5cncc5C4)CC3)c21 [Compound 59, 2-(1-methyl-1H-indazol-7-yl)-2-(1-(5,6,7,8-tetrahydroimidazo[1,5-a]pyrazine-7-carbonyl)piperidin-4-ylidene)acetonitrile] | 22 | 98 | 5 |
| COC1CCN(C(=O)N2CCC(=C(C#N)c3ccc(Cl)cn3)CC2)CC1 [Compound 81, 2-(5-chloropyridin-2-yl)-2-(1-(4-methoxypiperidine-1-carbonyl)piperidin-4-ylidene)acetonitrile] | 10 | 95 | -7 |
| N#CC(=C1CCN(C(=O)N2CCc3sccc3C2)CC1)c1ccc(Cl)cc1 [Compound 47] | 20 | 103 | 9 |
| CC(O)C1CCN(C(=O)N2CCC(=C(C#N)c3ccc(OC(F)(F)F)cc3)CC2)CC1 (stereo not drawn) [Compound 124, 2-(1-(4-(1-hydroxyethyl)piperidine-1-carbonyl)piperidin-4-ylidene)-2-(4-(trifluoromethoxy)phenyl)acetonitrile] | 9 | 91 | 4 |
| COC1CCN(C(=O)N2CCC(=C(C#N)c3ccc(Cl)cc3)CC2)CC1 [Compound 79, 2-(4-chlorophenyl)-2-(1-(4-methoxypiperidine-1-carbonyl)piperidin-4-ylidene)acetonitrile] | 10 | 99 | 6 |
| N#CC(=C1CCN(C(=O)N2C3CCC2COC3)CC1)c1ccc(F)c(F)c1 [Compound 31, 2-(1-(3-oxa-8-azabicyclo[3.2.1]octane-8-carbonyl)piperidin-4-ylidene)-2-(3,4-difluorophenyl)acetonitrile] | 9 | 95 | 11 |

Further lines, results first:

| inhibition at 10 µM [1] [%] | inhibition at 0.5 µM [2] [%] | inhibition at 10 µM [3] [%] | SMILES |
| --- | --- | --- | --- |
| 7 | 98 | 19 | N#CC(=C1CCN(C(=O)N2CCc3nocc3C2)CC1)c1ccc(Cl)cn1 [Compound 161, 2-(5-chloropyridin-2-yl)-2-(1-(4,5,6,7-tetrahydroisoxazolo[4,3-c]pyridine-5-carbonyl)piperidin-4-ylidene)acetonitrile] |
| 7 | 90 | 6 | N#CC(=C1CCN(C(=O)N2CCC(S(N)(=O)=O)CC2)CC1)c1ccc(C(F)(F)F)cc1 [Compound 148, 1-(4-(cyano(4-(trifluoromethyl)phenyl)methylene)piperidine-1-carbonyl)piperidine-4-sulfonamide] |
| 18 | 93 | 11 | CC(O)C1CCN(C(=O)N2CCC(=C(C#N)c3ccc(C(F)(F)F)cc3)CC2)CC1 (stereo not drawn) [Compound 151, 2-(1-(4-(1-hydroxyethyl)piperidine-1-carbonyl)piperidin-4-ylidene)-2-(4-(trifluoromethyl)phenyl)acetonitrile] |
| 4 | 91 | 3 | N#CC(=C1CCN(C(=O)N2CCC(CCCO)CC2)CC1)c1ccc(F)cc1 [Compound 142, 2-(4-fluorophenyl)-2-(1-(4-(3-hydroxypropyl)piperidine-1-carbonyl)piperidin-4-ylidene)acetonitrile] |
| 5 | 98 | 11 | CCOC1CCN(C(=O)N2CCC(=C(C#N)c3cccc(Cl)c3)CC2)CC1 [Compound 129, 2-(3-chlorophenyl)-2-(1-(4-ethoxypiperidine-1-carbonyl)piperidin-4-ylidene)acetonitrile] |
| 7 | 98 | 33 | N#CC(=C1CCN(C(=O)N2CCc3nocc3C2)CC1)c1ccc(Cl)cc1 [Compound 141, 2-(4-chlorophenyl)-2-(1-(4,5,6,7-tetrahydroisoxazolo[4,3-c]pyridine-5-carbonyl)piperidin-4-ylidene)acetonitrile] |
| -2 | 95 | 7 | CN(C(=O)N1CCC(=C(C#N)c2ccc(Cl)cc2)CC1)C1COC1 [Compound 169, 4-((4-chlorophenyl)(cyano)methylene)-N-methyl-N-(oxetan-3-yl)piperidine-1-carboxamide] |
| 4 | 99 | 5 | N#CC(=C1CCN(C(=O)N2CCOCC2)CC1)c1ccc(C(F)(F)F)cc1 [Compound 147, 2-(1-(morpholine-4-carbonyl)piperidin-4-ylidene)-2-(4-(trifluoromethyl)phenyl)acetonitrile] |
| 27 | 93 | 8 | CC(C)OC1CCN(C(=O)N2CCC(=C(C#N)c3cccc(Cl)c3)CC2)CC1 [Compound 139, 2-(3-chlorophenyl)-2-(1-(4-isopropoxypiperidine-1-carbonyl)piperidin-4-ylidene)acetonitrile] |
| 23 | 96 | 21 | N#CC(=C1CCN(C(=O)N2CCC(CCO)CC2)CC1)c1cccc(Cl)c1 [Compound 140, 2-(3-chlorophenyl)-2-(1-(4-(2-hydroxyethyl)piperidine-1-carbonyl)piperidin-4-ylidene)acetonitrile] |
